Results as given in patent US6890923B2, “Compounds” (AstraZeneca AB, priority 2002, dated 2005).

melting point [°C] | SMILES
113 to 114 | CC(C)Cn1c(=O)n(C)c(=O)c2c(-c3ccsc3)c(Cc3ccccc3C(F)(F)F)sc21 [Example 6, 3-Methyl-1-(2-methylpropyl)-5-(3-thienyl)-6-[[2-(trifluoromethyl)phenyl]methyl]-thieno[2,3-d]pyrimidine-2,4(1H,3H)-dione]
165 to 167 | CC(C)Cn1c(=O)n(C)c(=O)c2c(CCC(=O)O)c(Cc3ccccc3C(F)(F)F)sc21 [Example 28, 1,2,3,4-Tetrahydro-3-methyl-1-(2-methylpropyl)-2,4-dioxo-6-[[2-(trifluoromethyl)phenyl]methyl]-thieno[2,3-d]pyrimidine-5-propanoic acid]
